Consider 7 compounds from PubChem BioAssay (NCI).

Among the test systems are RXF 393 renal; NCI-H460 lung; OVCAR-8 ovarian; ACHN renal; HS 578T breast; SNB-75 CNS; MALME-3M melanoma; IGROV1 ovarian; KM12 colon; OVCAR-3 ovarian.
Common to all, as to test: NCI-60 cell line screen, 48 h

Molecules are shown by their SMILES.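 48-hour exposure; five concentrations; linearly interpolated endpoints. GI50 = concentration required for 50% inhibition of growth. TGI: total growth inhibition.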

For `CCOC(=O)[C@@H](C)C[C@H](Cc1ccccc1)NC(=O)c1csc([C@@H](C[C@H](C(C)C)N(C)C(=O)[C@@H](NC(=O)[C@H]2CCCCN2C)C(C)(C)C)OC(C)=O)n1`, the GI50 in the test on RXF 393 renal, with NCI-H460 lung, in the test with OVCAR-8 ovarian, with ACHN renal, in the test on HS 578T breast and in the test on SNB-75 CNS was < 0.00167 µM throughout. Also, the GI50 in the test with MALME-3M melanoma, with IGROV1 ovarian, with KM12 colon and in the test with OVCAR-3 ovarian was < 0.00167 µM in each case. For the same compound, the TGI in the test with RXF 393 renal is > 16.7 µM; in the test on NCI-H460 lung, > 5.37 µM; in the test on OVCAR-8 ovarian, > 16.7 µM; in the test on ACHN renal, > 16.7 µM; in the test with HS 578T breast it was 0.472 µM; with SNB-75 CNS it was 12.6 µM. In addition, the TGI in the test with MALME-3M melanoma is > 16.7 µM; with IGROV1 ovarian it was > 16.7 µM; in the test with KM12 colon, 0.215 µM; with OVCAR-3 ovarian, 0.00352 µM.

As for `N#Cc1c(-c2ccccc2)nc2c(c(-c3ccccc3)nn2-c2ccccc2)c1-c1ccc(O)cc1`, the GI50 in the test with RXF 393 renal was 1.03 µM; in the test on NCI-H460 lung, 1.73 µM; in the test on OVCAR-8 ovarian, 3.14 µM; in the test on ACHN renal, 2.24 µM; in the test on HS 578T breast it was 1.41 µM; in the test with SNB-75 CNS it was 2.03 µM. For the same compound, the GI50 was 1.62 µM in the test with MALME-3M melanoma, 1.8 µM with IGROV1 ovarian, 2.02 µM with KM12 colon and 2 µM in the test with OVCAR-3 ovarian. In addition, the TGI with RXF 393 renal worked out at 2.35 µM; with NCI-H460 lung, 3.26 µM; in the test on OVCAR-8 ovarian, 11.7 µM; in the test with ACHN renal, 5.89 µM; in the test on HS 578T breast, 4.46 µM; with SNB-75 CNS, 7.28 µM. Further, the TGI in the test on MALME-3M melanoma is 3.83 µM; in the test with IGROV1 ovarian, 3.62 µM; in the test on KM12 colon, 4.76 µM; in the test on OVCAR-3 ovarian it was 4.45 µM.

On to `CNC(=O)c1ccc(-c2cnc3ncc(Cc4ccc5ncccc5c4)n3n2)cc1F`, for which the GI50 was 13.4 µM in the test on RXF 393 renal; > 100 µM in the test on NCI-H460 lung; 52.4 µM with OVCAR-8 ovarian; > 100 µM with ACHN renal; 62.7 µM in the test with HS 578T breast; 12.7 µM in the test with SNB-75 CNS. The GI50 with MALME-3M melanoma was 62.7 µM; in the test with IGROV1 ovarian, > 100 µM; in the test on KM12 colon, > 100 µM; with OVCAR-3 ovarian, > 100 µM. Besides, the TGI in the test on RXF 393 renal was > 100 µM; in the test on NCI-H460 lung, > 100 µM; in the test on OVCAR-8 ovarian, > 100 µM; with ACHN renal it was > 100 µM; in the test on HS 578T breast, > 100 µM; in the test with SNB-75 CNS it was 54.8 µM. Moreover, the TGI in the test with MALME-3M melanoma, with IGROV1 ovarian, with KM12 colon and in the test with OVCAR-3 ovarian was > 100 µM each time.

As for `C=C1CC(COc2cc(Cl)nc(N)n2)C1`, the GI50 is 36.8 µM in the test with RXF 393 renal; 55.6 µM in the test with NCI-H460 lung; 43.7 µM in the test on OVCAR-8 ovarian; 14.5 µM in the test on ACHN renal; 49.9 µM in the test with HS 578T breast; 29.2 µM with SNB-75 CNS. For the same compound, the GI50 in the test on MALME-3M melanoma is 93.3 µM; with IGROV1 ovarian, 84.1 µM; in the test with KM12 colon, 25.5 µM; in the test on OVCAR-3 ovarian it was 28.6 µM. The compound also had a TGI in the test with ACHN renal of 74.1 µM.

For the compound `CCCCCCNc1nc(NCCCCCC)c2[nH]c(NCCCCCC)nc2n1`, the GI50 is 4.23 µM in the test with RXF 393 renal; 5.37 µM with NCI-H460 lung; 9.96 µM in the test on OVCAR-8 ovarian; 15 µM in the test with ACHN renal; 1.97 µM with HS 578T breast; 4.31 µM in the test on SNB-75 CNS. Besides, the GI50 was 4.5 µM in the test with MALME-3M melanoma, 19 µM with IGROV1 ovarian, 8.01 µM in the test on KM12 colon and 2.1 µM in the test on OVCAR-3 ovarian. Also, the TGI was 17.5 µM in the test on RXF 393 renal; 19.5 µM in the test with NCI-H460 lung; 30.8 µM in the test with OVCAR-8 ovarian; 37.8 µM in the test with ACHN renal; 9.84 µM in the test on HS 578T breast; 20.7 µM in the test with SNB-75 CNS. The TGI in the test on MALME-3M melanoma is 16.1 µM; with IGROV1 ovarian it was > 53.2 µM; in the test on KM12 colon, 21.1 µM; in the test with OVCAR-3 ovarian it was 9.44 µM.

As for `CCN(Cc1c(F)cccc1F)c1ccc(CO)c(Cl)c1`, the GI50 was 1.14 µM in the test on RXF 393 renal; 0.0663 µM in the test with NCI-H460 lung; 4.15 µM in the test with OVCAR-8 ovarian; 20.8 µM in the test with ACHN renal; 20.4 µM in the test with HS 578T breast; 11 µM in the test on SNB-75 CNS. Also, the GI50 in the test on MALME-3M melanoma is 17.5 µM; in the test on IGROV1 ovarian, 0.0401 µM; in the test with KM12 colon it was 11.4 µM; in the test on OVCAR-3 ovarian, 0.0634 µM. For the same compound, the TGI in the test on RXF 393 renal is 24.2 µM; in the test on NCI-H460 lung, 0.612 µM; in the test on OVCAR-8 ovarian, 35.8 µM; with ACHN renal, > 74.5 µM; in the test with HS 578T breast it was 77.4 µM; in the test with SNB-75 CNS, 49.6 µM. Moreover, the TGI came to 36.6 µM in the test on MALME-3M melanoma, 0.193 µM in the test on IGROV1 ovarian, 26.8 µM with KM12 colon and 0.317 µM in the test on OVCAR-3 ovarian.

With `CCCCCC(=O)Oc1ccc(/C(=C(\C)c2ccc(OC)cc2)c2ccc(OCCN3CCCCC3)cc2)cc1`, the GI50 is 1.8 µM in the test on RXF 393 renal; 4.42 µM in the test on NCI-H460 lung; 12.8 µM in the test with OVCAR-8 ovarian; 10.7 µM in the test on ACHN renal; 4.76 µM with HS 578T breast; 10.2 µM in the test on SNB-75 CNS. The GI50 with MALME-3M melanoma was 2.84 µM; with IGROV1 ovarian, 10.4 µM; in the test with KM12 colon, 8.83 µM; in the test with OVCAR-3 ovarian it was 11.6 µM. In addition, the TGI is 9.52 µM in the test on RXF 393 renal; 15.8 µM with NCI-H460 lung; 29.6 µM in the test with OVCAR-8 ovarian; 22.6 µM with ACHN renal; 25.1 µM in the test on HS 578T breast; 26.3 µM with SNB-75 CNS. For the same compound, the TGI in the test on MALME-3M melanoma was 10.4 µM; with IGROV1 ovarian it was 25.9 µM; with KM12 colon it was 27 µM; in the test on OVCAR-3 ovarian it was 25.2 µM.
